From ChEMBL document CHEMBL1201862, “PubChem BioAssay data set” (2004)
Blank lines part the entries; values can stand above or below the compound they belong to. The source made the active and inactive calls.

Experiments:
[1] = molecular target: T1, Probable nicotinate-nucleotide adenylyltransferase (Staphylococcus aureus (strain N315), UniProt P65502); assay type: functional, Staphylococcus aureus subsp. aureus N315;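 as to IC50 Mean: confirmatory dose-response retesting of NadD inhibitor hits first found in an ultra-high-throughput screen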
[2] = molecular target: T1, Probable nicotinate-nucleotide adenylyltransferase; assay type: functional, Staphylococcus aureus subsp. aureus N315; conditions: read-out: IC50_Mean
[3] = NIH3T3 cell viability loss – ATP luminescence, mouse fibroblasts, counter-screen, dose response (AID 2010); assay type: functional, cell-based;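 also: cells exposed to compound for about 90 hours before reading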
[4] = Trypanosoma cruzi growth suppression in host cells – NIH3T3 host cells, beta-gal luminescence, confirmation (AID 2044); assay type: functional, cell-based;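 also: intracellular parasites grown in NIH/3T3 mouse fibroblasts as host cells; luminescent beta-galactosidase reporter signal from transgenic T. cruzi replicating inside host cells; inhibitors lower the luminescence signal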
[5] = viability of uninfected HEp-2 cells – cell-based, HTS, cytotoxicity control for RSV inhibitor project, dose response (AID 2410); assay type: functional; conditions: human respiratory syncytial virus
[6] = cells
[7] = molecular target: T2, Low molecular weight phosphotyrosine protein phosphatase (Homo sapiens, UniProt P24666); assay type: functional; conditions: read-out: IC50_Mean;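 also: Dose-response confirmation assay measuring inhibition of LMPTP enzyme activity by fluorescence intensity read-out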
T2 sequence (P24666 whole entry): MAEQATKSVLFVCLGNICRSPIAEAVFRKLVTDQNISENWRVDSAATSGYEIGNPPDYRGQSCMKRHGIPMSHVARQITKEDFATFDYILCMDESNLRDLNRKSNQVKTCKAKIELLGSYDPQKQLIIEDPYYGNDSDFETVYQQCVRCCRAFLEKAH

[8] = blockers of CRF-binding protein–CRF-R2 complex – cell-based, uHTS hits, 384-well, dose response (AID 651639); assay type: functional, Homo sapiens; conditions: read-out: IC50_Mean
[9] = molecular target: T3, Corticotropin-releasing factor receptor 2/Corticotropin-releasing factor-binding protein (Homo sapiens, UniProt P24387+Q13324); test: activators of CRF receptor 2 with binding protein – uHTS hits, confirmation (AID 602473); assay type: functional; conditions: read-out: EC50_Mean
T3 sequence (Q13324 whole entry): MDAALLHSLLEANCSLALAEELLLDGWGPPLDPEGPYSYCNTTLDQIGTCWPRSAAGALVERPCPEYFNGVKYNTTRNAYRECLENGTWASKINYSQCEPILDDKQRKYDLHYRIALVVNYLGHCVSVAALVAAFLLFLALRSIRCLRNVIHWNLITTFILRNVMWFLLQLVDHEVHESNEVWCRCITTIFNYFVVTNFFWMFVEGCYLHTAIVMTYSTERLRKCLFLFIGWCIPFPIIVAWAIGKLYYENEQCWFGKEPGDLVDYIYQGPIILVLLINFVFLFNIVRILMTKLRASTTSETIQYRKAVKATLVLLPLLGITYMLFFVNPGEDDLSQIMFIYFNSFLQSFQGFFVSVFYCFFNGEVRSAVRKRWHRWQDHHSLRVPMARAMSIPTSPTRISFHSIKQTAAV
T3 sequence (P24387 whole entry): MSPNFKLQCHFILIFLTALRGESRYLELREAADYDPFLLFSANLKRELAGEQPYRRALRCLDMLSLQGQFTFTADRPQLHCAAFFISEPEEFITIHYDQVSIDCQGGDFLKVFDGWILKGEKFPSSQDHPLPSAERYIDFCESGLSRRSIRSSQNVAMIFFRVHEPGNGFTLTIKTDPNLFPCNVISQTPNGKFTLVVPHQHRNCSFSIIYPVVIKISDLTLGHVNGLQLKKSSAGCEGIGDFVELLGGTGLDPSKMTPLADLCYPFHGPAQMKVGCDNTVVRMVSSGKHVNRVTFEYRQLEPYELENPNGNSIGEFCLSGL

[10] = molecular target: T3, Corticotropin-releasing factor receptor 2/Corticotropin-releasing factor-binding protein; test: Dose Response confirmation of uHTS hits for small molecule antagonists of the CRF-binding protein and CRF-R2 receptor complex.; assay type: functional; conditions: read-out: IC50_Mean
[11] = molecular target: T4, Sentrin-specific protease 1 (Homo sapiens, UniProt Q9P0U3); test: Dose response confirmation of small molecule inhibitors of the catalytic domain of the SUMO protease, SENP1 in a FRET assay.; assay type: functional; conditions: read-out: IC50_Mean
T4 sequence (Q9P0U3 whole entry): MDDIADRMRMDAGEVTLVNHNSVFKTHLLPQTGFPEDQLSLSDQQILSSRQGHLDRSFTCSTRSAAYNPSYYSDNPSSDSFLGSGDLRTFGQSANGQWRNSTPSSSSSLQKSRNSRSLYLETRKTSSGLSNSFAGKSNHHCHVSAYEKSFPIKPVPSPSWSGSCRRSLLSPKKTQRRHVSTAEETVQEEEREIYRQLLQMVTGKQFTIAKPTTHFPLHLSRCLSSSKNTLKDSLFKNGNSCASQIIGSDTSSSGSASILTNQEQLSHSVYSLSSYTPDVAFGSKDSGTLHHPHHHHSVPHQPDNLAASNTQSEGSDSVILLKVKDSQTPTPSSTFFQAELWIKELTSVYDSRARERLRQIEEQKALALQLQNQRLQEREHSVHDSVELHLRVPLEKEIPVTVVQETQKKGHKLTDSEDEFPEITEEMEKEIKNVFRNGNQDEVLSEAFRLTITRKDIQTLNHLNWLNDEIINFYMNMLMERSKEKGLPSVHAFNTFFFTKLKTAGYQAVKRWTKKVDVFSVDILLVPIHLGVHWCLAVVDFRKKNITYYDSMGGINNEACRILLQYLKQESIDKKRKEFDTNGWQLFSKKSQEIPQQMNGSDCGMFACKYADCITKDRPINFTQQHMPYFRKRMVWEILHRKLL

[12] = molecular target: T4, Sentrin-specific protease 1; test: SENP1 catalytic domain blockers, concentration series – biochemical, kinetic FRET, dose response (AID 651697); assay type: functional; conditions: read-out: IC50_Mean
[13] = molecular target: T5, Caspase-3 (Homo sapiens, UniProt P42574); assay type: functional
T5 sequence (P42574 whole entry): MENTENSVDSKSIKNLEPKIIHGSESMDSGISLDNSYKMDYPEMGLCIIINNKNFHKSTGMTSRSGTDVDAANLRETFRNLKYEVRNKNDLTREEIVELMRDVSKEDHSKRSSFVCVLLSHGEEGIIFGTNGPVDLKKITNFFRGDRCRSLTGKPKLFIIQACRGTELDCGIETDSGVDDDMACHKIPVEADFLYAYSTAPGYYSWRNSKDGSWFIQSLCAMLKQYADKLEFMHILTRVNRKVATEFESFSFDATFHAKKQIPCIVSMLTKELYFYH

[14] = molecular target: T6, Sentrin-specific protease 6 (Homo sapiens, UniProt Q9GZR1); test: SAR Analysis of small molecule inhibitors of Sentrin-specific protease 6 (SENP6) using a Luminescent assay. [Related pubchem assays (depositor defined):AID2582, AID2599]; assay type: functional
T6 sequence (Q9GZR1 whole entry): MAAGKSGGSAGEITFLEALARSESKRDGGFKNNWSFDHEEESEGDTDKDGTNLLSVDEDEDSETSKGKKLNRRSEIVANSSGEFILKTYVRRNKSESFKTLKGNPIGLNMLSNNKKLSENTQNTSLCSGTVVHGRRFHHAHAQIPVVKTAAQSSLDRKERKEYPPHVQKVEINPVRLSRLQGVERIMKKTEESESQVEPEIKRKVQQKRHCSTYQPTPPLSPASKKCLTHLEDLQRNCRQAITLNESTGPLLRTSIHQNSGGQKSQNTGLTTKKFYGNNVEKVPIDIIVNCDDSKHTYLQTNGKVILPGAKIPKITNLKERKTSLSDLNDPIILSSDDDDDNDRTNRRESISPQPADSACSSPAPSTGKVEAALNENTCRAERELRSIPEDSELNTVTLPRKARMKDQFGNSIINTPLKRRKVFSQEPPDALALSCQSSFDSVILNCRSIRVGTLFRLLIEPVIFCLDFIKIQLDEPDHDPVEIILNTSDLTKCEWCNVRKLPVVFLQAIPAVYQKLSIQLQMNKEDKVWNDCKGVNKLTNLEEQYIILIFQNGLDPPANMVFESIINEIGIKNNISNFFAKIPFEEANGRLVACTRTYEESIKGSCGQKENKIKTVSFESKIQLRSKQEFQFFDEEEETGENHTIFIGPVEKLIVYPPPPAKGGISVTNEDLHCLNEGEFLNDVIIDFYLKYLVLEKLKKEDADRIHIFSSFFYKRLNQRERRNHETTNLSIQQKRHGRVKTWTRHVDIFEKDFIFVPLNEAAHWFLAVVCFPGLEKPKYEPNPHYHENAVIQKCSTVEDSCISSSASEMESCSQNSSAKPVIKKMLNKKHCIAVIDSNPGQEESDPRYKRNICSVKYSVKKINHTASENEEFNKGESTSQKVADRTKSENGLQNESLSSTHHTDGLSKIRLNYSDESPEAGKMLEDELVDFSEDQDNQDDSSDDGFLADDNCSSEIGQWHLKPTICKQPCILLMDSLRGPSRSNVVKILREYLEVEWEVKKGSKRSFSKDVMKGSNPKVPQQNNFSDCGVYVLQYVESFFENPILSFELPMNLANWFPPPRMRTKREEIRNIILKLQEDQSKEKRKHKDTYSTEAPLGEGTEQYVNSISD

[15] = molecular target: T7, Sentrin-specific protease 8 (Homo sapiens, UniProt Q96LD8); test: inhibition of human SENP8 cleavage activity – biochemical, luminescence, SAR follow-up (AID 504501); assay type: functional
T7 sequence (Q96LD8 whole entry): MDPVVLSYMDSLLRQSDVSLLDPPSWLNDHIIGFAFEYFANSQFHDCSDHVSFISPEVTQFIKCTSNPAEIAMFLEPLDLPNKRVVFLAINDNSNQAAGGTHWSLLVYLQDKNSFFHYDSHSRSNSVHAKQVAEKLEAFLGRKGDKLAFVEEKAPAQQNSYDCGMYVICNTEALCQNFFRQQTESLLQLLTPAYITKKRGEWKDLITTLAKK

[16] = molecular target: T8, Sentrin-specific protease 7 (Homo sapiens, UniProt Q9BQF6); assay type: functional;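 also: Luminescence-based dose-response confirmation of ultra-high-throughput screening hits, measuring inhibition of SENP7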
T8 sequence (Q9BQF6 whole entry): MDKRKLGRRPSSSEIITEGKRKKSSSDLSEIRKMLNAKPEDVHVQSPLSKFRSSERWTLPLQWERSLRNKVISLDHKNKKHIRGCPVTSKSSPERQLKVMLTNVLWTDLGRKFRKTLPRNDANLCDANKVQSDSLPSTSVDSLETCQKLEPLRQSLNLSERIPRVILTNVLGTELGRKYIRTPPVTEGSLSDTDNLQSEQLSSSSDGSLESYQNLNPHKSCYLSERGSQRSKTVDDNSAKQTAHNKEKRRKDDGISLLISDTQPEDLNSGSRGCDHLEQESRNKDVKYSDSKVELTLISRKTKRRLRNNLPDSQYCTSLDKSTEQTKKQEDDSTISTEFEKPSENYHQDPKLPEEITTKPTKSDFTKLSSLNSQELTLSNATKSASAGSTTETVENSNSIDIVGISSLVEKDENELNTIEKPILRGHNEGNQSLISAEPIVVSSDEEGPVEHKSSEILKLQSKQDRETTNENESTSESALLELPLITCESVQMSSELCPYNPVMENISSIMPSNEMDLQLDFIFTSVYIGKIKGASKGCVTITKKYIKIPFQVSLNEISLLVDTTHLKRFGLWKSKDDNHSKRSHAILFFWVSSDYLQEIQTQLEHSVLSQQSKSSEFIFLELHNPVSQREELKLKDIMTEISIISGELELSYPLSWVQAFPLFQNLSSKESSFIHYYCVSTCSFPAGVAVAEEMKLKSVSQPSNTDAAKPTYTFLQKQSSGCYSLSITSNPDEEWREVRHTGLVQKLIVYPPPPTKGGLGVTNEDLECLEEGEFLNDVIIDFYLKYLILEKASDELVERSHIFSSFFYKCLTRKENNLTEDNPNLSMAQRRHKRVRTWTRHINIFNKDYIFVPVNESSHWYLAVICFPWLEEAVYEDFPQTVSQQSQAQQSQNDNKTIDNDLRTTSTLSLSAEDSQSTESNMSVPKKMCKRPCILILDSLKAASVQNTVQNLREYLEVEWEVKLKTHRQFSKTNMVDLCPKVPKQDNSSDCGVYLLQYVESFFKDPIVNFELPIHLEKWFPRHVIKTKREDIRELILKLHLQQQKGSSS

[17] = molecular target: T6, Sentrin-specific protease 6; assay type: functional
[18] = molecular target: T8, Sentrin-specific protease 7; test: inhibition of human SENP7 cleavage activity – biochemical, luminescence, SAR follow-up (AID 504497); assay type: functional
[19] = molecular target: T5, Caspase-3; test: SAR Analysis of small molecule inhibitors of Sentrin-specific proteases (SENPs) using a Caspase-3 Selectivity assay. [Related pubchem assays (depositor defined):AID2540, AID2599, AID434973, AID489001]; assay type: functional
[20] = molecular target: T7, Sentrin-specific protease 8; assay type: functional

Compound: Cc1c(C(=O)N2CC3(CC(c4cccc(NC(=O)CC(c5ccccc5)c5ccccc5)c4)=NO3)C[C@@H]2C(N)=O)cc([N+](=O)[O-])cc1[N+](=O)[O-] (some centres not stated)
IC50 [1]: 16.8 µM (active) | IC50 [2]: 38.4 µM (active) | EC50 [3]: > 60 µM (not active) | EC50 [4]: 1.05 µM (active)

Compound: CCn1cc(C(=O)O)c(=O)c2cc(F)c(N3CCN(C(=O)Nc4ccccc4)CC3)cc21
CC50 [5]: > 50 µM (active) | IC50 [6]: 26.9 µM (active) | IC50 [7]: 73.1 µM (inactive)

Compound: COC(=O)C1=NN(c2ccccc2)C2(S1)SC(C(C)=O)=C(C)N2c1ccccc1 (configuration not stated)
IC50 [8]: 19 µM (active) | EC50 [9]: > 53 µM (inactive) | IC50 [10]: 25.7 µM (active)

Compound: O=C(Nc1cc2c(cc1Cl)-c1ccc([N+](=O)[O-])cc1C2=NO)C(F)(F)F
IC50 [11]: 2.89 µM (active) | IC50 [12]: 12.5 µM (active)

Compound: COc1ccc(Nc2cc(C)nc3ncnn23)cc1Cl
IC50 [11]: 19.6 µM (active) | IC50 [12]: 40.8 µM (inactive)

Second part, led by results:

IC50 [1]: 9.8 µM (active) | IC50 [2]: 38.2 µM (active)
Compound: O=C(Nc1ccc(S(=O)(=O)Nc2nccs2)cc1)c1cccc(N2C(=O)c3ccccc3C2=O)c1

IC50 [13]: > 100 µM (inactive) | IC50 [14]: 0.905 µM (active) | IC50 [16]: > 100 µM (inactive) | IC50 [17]: 13.5 µM (active) | IC50 [18]: 0.896 µM (active) | IC50 [19]: 1.41 µM (active)
Compound: CSc1nc2ccc(NC(=O)c3cc4ccccc4o3)cc2s1
IC50 [15]: 0.869 µM (active) | IC50 [20]: 94.3 µM (active)

IC50 [8]: > 20 µM (inactive) | EC50 [9]: > 53 µM (inactive) | IC50 [10]: < 0.368 µM (active)
Compound: Cc1nn(Cc2ccc(Cl)cc2)c(C)c1NC(=O)c1ccc([N+](=O)[O-])cc1
